# Tests used:
# [1] = tested on: XBP1 mRNA in HCT116 cells; assay: RT-PCR for Xbp1 mRNA splicing; type: cell-based, Homo sapiens; settings: HCT116, 24 hr
# Protocol: Cells were grown in 6-well plates and harvested with 0.5 ml of TRIzol reagent (Life Technologies) per manufacturer's protocol to extract RNA. […] The reverse transcription product was diluted to 200 μl with 10 mM Tris-HCl pH 8.2 and used at 1:100 dilution for subsequent RT-PCR reactions. 2 μl of cDNA was added to 0.2 μM of forward and reverse primers ([…]; Hs_XBP1_Rev: [NT]), 0.2 mM of each dNTP, 0.5 units of Taq DNA polymerase (Thermo Scientific). The reaction was set at an annealing temperature of 60.5°C with an extension time of 30 s for 26 cycles.
# [2] = tested on: caspase 8 in HCT116 GFP-Trap immunoprecipitates; assay: Caspase 8 activity (caspase glo 8) of GFP immunoprecipitates (beads); type: cell-based, Homo sapiens
# Protocol: 15 cm dishes were seeded with 4 million HCT116 cells and allowed to recover for 18 hr prior to transfection. Samples were then transfected for 24 hr with the GFP-tagged ER trafficked protein, cytosolic GFP, or empty vector. To harvest apoptotic and living cells for each sample, all media and washes were collected. Cells were scraped in 2 ml of cold PBS and combined with the media and washes. Samples were centrifuged to pellet cells, washed with 1 ml cold PBS, and flash frozen in liquid N2 prior to lysis.
# The cell pellets were resuspended in 750 μl of 30 mM HEPES pH 7.2, 150 mM NaCl, 1% Triton X-100 with 1x Roche protease inhibitor cocktail (if used subsequently for caspase glo 8 assay) or with 5x Roche protease inhibitor cocktail (if used for immunoblotting). The cells were lysed by mechanical shearing through a 25G needle for 13–15 plunges followed by incubation on ice for 30 min. The lysate was centrifuged at 2000xg for 5 min to remove debris and then incubated with 30 μl of GFP-Trap magnetic agarose beads (Chromotek gtma-20) for 4 hr at 4°C. The beads were then washed with 750 μl of lysis buffer for 10 min at 4°C for three rounds.
# For measuring caspase activity, a fifth of the beads was resuspended in 40 μl of 30 mM HEPES pH 7.2, 150 mM NaCl, 1% Triton X-100. 10 μl of the resuspended mixture was incubated with 10 ul of the caspase glo 8 luminogenic substrate (Promega #PRG8200) for 45 min at RT before measuring luminescence.
# [3] = tested on: HCT116 cells; assay: Annexin V (and SytoxBlue) flow cytometry for apoptosis; type: cell-based, Homo sapiens
# Protocol: Cells seeded in a 6-well plate were transfected with the specified plasmid for 24 hr and harvested via trypsinization in complete media to allow a 30 min recovery at 37°C. The samples were then centrifuged at 500xg for 5 min and resuspended In 150 μl of a 1:20 dilution of Annexin V-AlexaFluor 647 conjugate (Thermo Scientific #A23204). Samples were transferred to a 96-well U-bottom plate and incubated in the dark for 15 min at RT. The distribution of apoptotic cells was determined by flow cytometry on a BD LSR II.
# [4] = tested on: GAPDH; assay: qPCR of GAPDH (reference transcript); type: cell-based; settings: Rep 2; for avg. fold induction GAPDH / fold induction GAPDH: vs 24 hr cytoGFP (empty traffo)
substance,measurement,setting,value
RHO-GFP: GFP-tagged rhodopsin expressed from plasmid,XBP1 mRNA splicing,[1],induced XBP1 mRNA splicing
same,caspase 8 activity of immunoprecipitates,[2]; GFP pulldown,enriched for DR5 protein and caspase 8 activity more robustly than INS-GFP
same,Mean ± SEM (IP),"[2]; GFPTrap beads, relative to GFP, n=3","4.840 ± 0.2227, n=3"
same,fold change relative to GFP (GFPTrap beads),[2]; Rep 1,4.68 fold change
same,fold change relative to GFP (GFPTrap beads),[2]; Rep 2,4.56 fold change
same,fold change relative to GFP (GFPTrap beads),[2]; Rep 3,5.28 fold change
same,average fold change relative to GFP (GFPTrap beads),[2]; average of replicates,4.84 fold change
same,GFPTrap beads RLUs,[2]; replicate 1,329.286 RLUs
same,GFPTrap beads RLUs,[2]; replicate 2,320.842 RLUs
same,GFPTrap beads RLUs,[2]; replicate 3,371.502 RLUs
same,95% confidence interval of difference (IP),[2]; vs. GFP,3.209 to 4.472
same,Difference between means (IP),[2]; vs. GFP,3.840 ± 0.2275
same,PARP cleavage and annexin V staining,"[3]; HCT116, transfected 24 hr, Nt or DR5 siRNA",induced PARP cleavage and annexin V staining in a DR5-dependent manner
same,"Mean ± SEM (siDR5), Annexin V","[3]; siDR5, N=3",19 ± 0.033 N=3
same,"95% confidence interval of difference, Annexin V",[3]; siDR5 vs. siNt,-22 to -5.1
same,"Difference between means, Annexin V",[3]; siDR5 vs. siNt,-13 ± 3.0
same,"Mean ± SEM (siNt), Annexin V","[3]; siNt, N=3",33 ± 3.0 N=3
same,Cq GAPDH,"[4]; 3 hr, mean of 3 replicates",19.7379
same,2^-(deltaCq) GAPDH,"[4]; 3 hr, replicate 1",0.8551
same,Cq GAPDH,"[4]; 3 hr, replicate 1",19.9638
same,"Cq(sample) - avg Cq(GAPDH), GAPDH","[4]; 3 hr, replicate 1",0.2259
same,2^-(deltaCq) GAPDH,"[4]; 3 hr, replicate 2",1.128
same,Cq GAPDH,"[4]; 3 hr, replicate 2",19.5639
same,"Cq(sample) - avg Cq(GAPDH), GAPDH","[4]; 3 hr, replicate 2",-0.174
same,2^-(deltaCq) GAPDH,"[4]; 3 hr, replicate 3",1.0366
same,Cq GAPDH,"[4]; 3 hr, replicate 3",19.686
same,"Cq(sample) - avg Cq(GAPDH), GAPDH","[4]; 3 hr, replicate 3",-0.05187
same,avg. fold induction GAPDH,"[4]; 3 hr, mean of 3 replicates",1.004
same,fold induction GAPDH,"[4]; 3 hr, replicate 1",0.8525
same,fold induction GAPDH,"[4]; 3 hr, replicate 2",1.125
same,fold induction GAPDH,"[4]; 3 hr, replicate 3",1.034
same,Cq GAPDH,"[4]; 7 hr, mean of 3 replicates",19.658
same,2^-(deltaCq) GAPDH,"[4]; 7 hr, replicate 1",0.7732
same,Cq GAPDH,"[4]; 7 hr, replicate 1",20.029
same,"Cq(sample) - avg Cq(GAPDH), GAPDH","[4]; 7 hr, replicate 1",0.371
same,2^-(deltaCq) GAPDH,"[4]; 7 hr, replicate 2",1.046
same,Cq GAPDH,"[4]; 7 hr, replicate 2",19.5931
same,"Cq(sample) - avg Cq(GAPDH), GAPDH","[4]; 7 hr, replicate 2",-0.06483
same,2^-(deltaCq) GAPDH,"[4]; 7 hr, replicate 3",1.236
same,Cq GAPDH,"[4]; 7 hr, replicate 3",19.3518
same,"Cq(sample) - avg Cq(GAPDH), GAPDH","[4]; 7 hr, replicate 3",-0.3062
same,avg. fold induction GAPDH,"[4]; 7 hr, mean of 3 replicates",1.016
same,fold induction GAPDH,"[4]; 7 hr, replicate 1",0.7709
same,fold induction GAPDH,"[4]; 7 hr, replicate 2",1.043
same,fold induction GAPDH,"[4]; 7 hr, replicate 3",1.233
same,Cq GAPDH,"[4]; 24 hr, mean of 3 replicates",19.018
same,2^-(deltaCq) GAPDH,"[4]; 24 hr, replicate 1",0.8063
same,Cq GAPDH,"[4]; 24 hr, replicate 1",19.3286
same,"Cq(sample) - avg Cq(GAPDH), GAPDH","[4]; 24 hr, replicate 1",0.3107
same,2^-(deltaCq) GAPDH,"[4]; 24 hr, replicate 2",1.066
same,Cq GAPDH,"[4]; 24 hr, replicate 2",18.9252
same,"Cq(sample) - avg Cq(GAPDH), GAPDH","[4]; 24 hr, replicate 2",-0.09277
same,2^-(deltaCq) GAPDH,"[4]; 24 hr, replicate 3",1.163
same,Cq GAPDH,"[4]; 24 hr, replicate 3",18.8001
same,"Cq(sample) - avg Cq(GAPDH), GAPDH","[4]; 24 hr, replicate 3",-0.2179
same,avg. fold induction GAPDH,"[4]; 24 hr, mean of 3 replicates",1.009
same,fold induction GAPDH,"[4]; 24 hr, replicate 1",0.8039
same,fold induction GAPDH,"[4]; 24 hr, replicate 2",1.063
same,fold induction GAPDH,"[4]; 24 hr, replicate 3",1.16

# Source: article PMC7041945, “Misfolded proteins bind and activate death receptor 5 to trigger apoptosis during unresolved endoplasmic reticulum stress” (eLife, 2020)
